Series [1] deals with HEK293. Kind of series: (§1) Growth inhibition of HEK293 cells at 1 to 100 uM after 24 hrs by MTS assay relative to control. The format is cell-based. As to conditions: human, hek293, 24 h, 100 µM. For orientation: Formazan colour is commonly taken as a measure of viable cells.
A further series relates to PC-3. Kind of series: Growth inhibition of human PC3 cells at 1 to 100 uM after 24 hrs by MTS assay relative to control. The format is functional.
For series [2], the system named is SH-SY5Y. In words: Growth inhibition of human SH-SY5Y cells at 1 to 100 uM after 24 hrs by MTS assay relative to control. The format is functional.
Series [3] is described as follows: as §1. The format is cell-based. As to conditions: human, HEK293 cells; read-out: GI.
Series [4] concerns HEK293. In words: Growth inhibition of HEK293 cells after 24 hrs by MTS assay. The format is cell-based. As to conditions: human, hek293, 24 h.
The subject of series [5] is SH-SY5Y. In words: Antiproliferative activity against CoCl2-simulated human SH-SY5Y cells assessed as reduction in cell viability at 30 uM pretreated for 24 hrs followed by CoCl2 addition measured after overnight incubation by MTS assay. The format is functional.
A further series addresses Carbonic anhydrase 9 (Homo sapiens, UniProt Q16790).

Each structure is given as a SMILES string.

Description for Carbonic anhydrase 9: Inhibition of recombinant human carbonic anhydrase 9 catalytic domain preincubated for 15 mins prior to testing measured for 10 to 100 secs by phenol red-based stopped-flow CO2 hydration assay

Take `CCn1cc(-c2cc(C(=O)O)n[nH]2)c2ccccc21`: the “growth inhibition (GI)” value with HEK293 [1] was “Non-Toxic”; in the series with PC-3, 85%; in the series on SH-SY5Y [2] it was 85%.

In general, Ki refers to the equilibrium dissociation constant of an inhibitor or competing ligand from its target. Low values mean higher affinity, high ones lower affinity. As for `COC(=O)c1cc(-c2cn(C(C)C)c3ccccc23)n[nH]1`, the inhibition at 24 h, 100 µM in series [3] is 70%. The “growth inhibition (GI)” value was “Dose-dependent effect” in the series on HEK293 [4], 85% with PC-3 and 85% in the series on SH-SY5Y [2]. Moreover, the Activity with SH-SY5Y [5] is given as 40%. Moreover, the Ki on Carbonic anhydrase 9 worked out at 7.36 µM.

As for `CC(C)n1cc(-c2cc(C(=O)O)[nH]n2)c2ccccc21`, the “growth inhibition (GI)” value in the series with HEK293 [1] was “Non-Toxic”; in the series with PC-3 it was 85%; with SH-SY5Y [2], 85%. In addition, the Ki at Carbonic anhydrase 9 is 18.9 µM.

For `CCCCn1cc(-c2cc(C(=O)O)[nH]n2)c2ccccc21`, at Carbonic anhydrase 9, the Ki turned out to be 4.51 µM.

As to `CCn1cc(-c2cc(C(=O)OC)[nH]n2)c2ccccc21`, the “growth inhibition (GI)” value is reported as “Non-Toxic” in the series with HEK293 [1], 85% in the series with PC-3 and 85% with SH-SY5Y [2]. Further, the affinity on Carbonic anhydrase 9, expressed as Ki, was 0.47 µM.

`CCCCn1cc(-c2cc(C(=O)OC)[nH]n2)c2ccccc21` showed a Ki on Carbonic anhydrase 9 of 7.9 µM.

Molecule `CCn1cc(-c2cc(C(=O)O)n(C)n2)c2ccccc21` came in with a Ki on Carbonic anhydrase 9 of 2.91 µM.

`CCn1cc(-c2cc(C(=O)OC)n(C)n2)c2ccccc21` showed a Ki at Carbonic anhydrase 9 of 3.02 µM.
